Experimental data: ChEMBL document CHEMBL6078643, “Palladium-Mediated Bioorthogonal System for Prodrug Activation of N-Benzylbenzamide-Containing Tubulin Polymerization Inhibitors for the Treatment of Solid Tumors” (J Med Chem, 2024)
pIC50: −log10 of the molar value. Activity calls are given as the source filed them. The rule behind the calls is not given here.

Assays:
[1] = Select factor, ratio of test compound IC50 to 5-fluoro-N-(3-hydroxy-4-methoxybenzyl)-2-morpholinobenzamide IC50 for antiproliferative activity against human THLE-2 cells assessed as reduction in cell viability incubated for 72 hrs by CCK-8 assay; format: toxicity, cell-based; conditions: read-out: Ratio IC50
[2] = Antiproliferative activity against human THLE-2 cells assessed as reduction in cell viability incubated for 72 hrs by CCK-8 assay; format: toxicity, cell-based
HepG2 [3] = assay: Antiproliferative activity against human HepG2 cells assessed as reduction in cell viability incubated for 72 hrs by CCK-8 assay; format: functional, cell-based; conditions: HepG2, 72 h
H22 [4] = assay: Select factor, ratio of test compound IC50 to 5-fluoro-N-(3-hydroxy-4-methoxybenzyl)-2-morpholinobenzamide IC50 for antiproliferative activity against mouse H22 cells assessed as reduction in cell viability incubated for 72 hrs by CCK-8 assay; format: functional
H22 [5] = assay: Antiproliferative activity against mouse H22 cells assessed as reduction in cell viability incubated for 72 hrs by CCK-8 assay; format: functional, cell-based; conditions: H22, 72 h
[6] = Prodrug release in PBS buffer assessed as half release time of 5-fluoro-N-(3-hydroxy-4-methoxybenzyl)-2-morpholinobenzamide in presence of palladium resins at 75 uM by HPLC analysis; format: ADME
K562 [7] = assay: Select factor, ratio of test compound IC50 to 5-fluoro-N-(3-hydroxy-4-methoxybenzyl)-2-morpholinobenzamide IC50 for antiproliferative activity against human K562 cells assessed as reduction in cell viability incubated for 72 hrs by CCK-8 assay; format: functional
HepG2 [8] = assay: Select factor, ratio of test compound IC50 to 5-fluoro-N-(3-hydroxy-4-methoxybenzyl)-2-morpholinobenzamide IC50 for antiproliferative activity against human HepG2 cells assessed as reduction in cell viability incubated for 72 hrs by CCK-8 assay; format: functional
K562 [9] = assay: Antiproliferative activity against human K562 cells assessed as reduction in cell viability incubated for 72 hrs by CCK-8 assay; format: functional, cell-based; conditions: K562, 72 h
[10] = Select factor, ratio of test compound IC50 to 4-(((4-((4-methoxyphenyl)(methyl)amino)quinazolin-2-yl)amino)methyl)phenol IC50 for antiproliferative activity against human THLE-2 cells assessed as reduction in cell viability incubated for 72 hrs by CCK-8 assay; format: toxicity, cell-based; conditions: read-out: Ratio IC50
[11] = Prodrug release in PBS buffer assessed as half release time of 4-(((4-((4-methoxyphenyl)(methyl)amino)quinazolin-2-yl)amino)methyl)phenol in presence of palladium resins at 75 uM by HPLC analysis; format: ADME
K562 [12] = assay: Select factor, ratio of test compound IC50 to 4-(((4-((4-methoxyphenyl)(methyl)amino)quinazolin-2-yl)amino)methyl)phenol IC50 for antiproliferative activity against human K562 cells assessed as reduction in cell viability incubated for 72 hrs by CCK-8 assay; format: functional
H22 [13] = assay: Select factor, ratio of test compound IC50 to 4-(((4-((4-methoxyphenyl)(methyl)amino)quinazolin-2-yl)amino)methyl)phenol IC50 for antiproliferative activity against mouse H22 cells assessed as reduction in cell viability incubated for 72 hrs by CCK-8 assay; format: functional
HepG2 [14] = assay: Select factor, ratio of test compound IC50 to 4-(((4-((4-methoxyphenyl)(methyl)amino)quinazolin-2-yl)amino)methyl)phenol IC50 for antiproliferative activity against human HepG2 cells assessed as reduction in cell viability incubated for 72 hrs by CCK-8 assay; format: functional
Tubulin (Homo sapiens) [15] = molecular target: T1, Tubulin (Homo sapiens) (UniProt P68371+Q9H4B7+P0DPH7+P68366+Q13509+Q71U36+P04350+Q3ZCM7+P07437+P68363+Q9BQE3+Q6PEY2+Q13885+Q9BVA1+Q9BUF5); assay: Inhibition of tubulin polymerization in human K562 cells assessed as decrease in polymerized alpha tubulin level at 16 nM incubated for 24 hrs by Western blotting analysis; format: cell-based
Tubulin (Homo sapiens) [16] = molecular target: T1, Tubulin (Homo sapiens); assay: Inhibition of tubulin polymerization in human HepG2 cells assessed as decrease in polymerized alpha tubulin level at 19 nM incubated for 24 hrs by Western blotting analysis; format: cell-based
HepG2 [17] = assay: Antitumor activity against human HepG2 cells xenografted in Balb/c mouse assessed as tumor growth inhibition at 20 mg/kg, iv administered daily for 14 days relative to control; format: functional; conditions: HepG2, 336 h, time 14 day, read-out: TGI
K562 [18] = assay: Induction of cell cycle arrest in human K562 cells assessed as accumulation of cells at S phase at 20 nM incubated for 72 hrs by PI staining based flow cytometric analysis ( Rvb = 14.04 %); format: functional
Tubulin (Homo sapiens) [19] = molecular target: T1, Tubulin (Homo sapiens); assay: Disruption of microtubule organization in human K562 cells at 20 nM incubated for 72 hrs by DAPI staining based confocal microscopic analysis; format: cell-based
K562 [20] = assay: Induction of apoptosis in human K562 cells assessed as late apoptotic cells at 20 nM incubated for 72 hrs by Annexin V-APC staining based flow cytometric analysis (reference value: 1.36%); format: functional
Tubulin (Homo sapiens) [21] = molecular target: T1, Tubulin (Homo sapiens); assay: Inhibition of tubulin polymerization in human K562 cells assessed as decrease in alpha tubulin expression at 16 nM incubated for 24 hrs by Western blotting analysis; format: cell-based
K562 [22] = assay: Induction of cell cycle arrest in human K562 cells assessed as accumulation of cells at G1 phase at 20 nM incubated for 72 hrs by PI staining based flow cytometric analysis ( Rvb = 77.46 %); format: functional
HepG2 [23] = assay: Antitumor activity against human HepG2 cells xenografted in Balb/c mouse assessed as cell necrosis at 20 mg/kg, iv administered daily for 14 days by TUNEL staining based analysis; format: functional, organism-based; conditions: time 14.0 day
Tubulin (Homo sapiens) [24] = molecular target: T1, Tubulin (Homo sapiens); assay: Inhibition of tubulin polymerization in human HepG2 cells assessed as decrease in beta tubulin expression at 19 nM incubated for 24 hrs by Western blotting analysis; format: cell-based
Tubulin (Homo sapiens) [25] = molecular target: T1, Tubulin (Homo sapiens); assay: In vivo inhibition of tubulin polymerization in human HepG2 cells xenografted in Balb/c mouse assessed as decrease in alpha tubulin expression at 20 mg/kg, iv administered daily for 14 days incubated for 24 hrs by Western blot analysis; format: functional, organism-based; conditions: time 14.0 day
K562 [26] = assay: Induction of apoptosis in human K562 cells assessed as necrotic cells at 20 nM incubated for 72 hrs by Annexin V-APC staining based flow cytometric analysis (reference value: 1.65%); format: functional
HepG2 [27] = assay: Antiproliferative activity against human HepG2 cells at 100 nM incubated for 72 hrs in presence of palladium resins by CCK-8 assay; format: functional, cell-based
K562 [28] = assay: Antiproliferative activity against human K562 cells at 100 nM incubated for 72 hrs in presence of palladium resins by CCK-8 assay; format: functional, cell-based
K562 [29] = assay: Induction of apoptosis in human K562 cells assessed as viable cells at 20 nM incubated for 72 hrs by Annexin V-APC staining based flow cytometric analysis (reference value: 94.21%); format: functional; conditions: read-out: Activity
Tubulin (Homo sapiens) [30] = molecular target: T1, Tubulin (Homo sapiens); assay: In vivo inhibition of tubulin polymerization in human HepG2 cells xenografted in Balb/c mouse assessed as decrease in beta tubulin expression at 20 mg/kg, iv administered daily for 14 days incubated for 24 hrs by Western blot analysis; format: functional, organism-based; conditions: time 14.0 day
K562 [31] = assay: Induction of apoptosis in human K562 cells assessed as early apoptotic cells at 20 nM incubated for 72 hrs by Annexin V-APC staining based flow cytometric analysis (reference value: 2.78%); format: functional
Tubulin (Homo sapiens) [32] = molecular target: T1, Tubulin (Homo sapiens); assay: Inhibition of tubulin polymerization in human HepG2 cells assessed as decrease in alpha tubulin expression at 19 nM incubated for 24 hrs by Western blotting analysis; format: cell-based
K562 [33] = assay: Induction of cell cycle arrest in human K562 cells assessed as accumulation of cells at G2 phase at 20 nM incubated for 72 hrs by PI staining based flow cytometric analysis ( Rvb = 8.5 %); format: functional
HepG2 [34] = assay: Antitumor activity against human HepG2 cells xenografted in Balb/c mouse assessed as cell necrosis at 20 mg/kg, iv administered daily for 14 days by H and E staining based analysis; format: functional, organism-based; conditions: time 14.0 day
Tubulin (Homo sapiens) [35] = molecular target: T1, Tubulin (Homo sapiens); assay: Inhibition of tubulin polymerization in human K562 cells assessed as decrease in beta tubulin expression at 16 nM incubated for 24 hrs by Western blotting analysis; format: cell-based
[36] = molecular target: Bcr/Abl fusion protein (Homo sapiens) (UniProt P00519+P11274); assay: Inhibition of Bcr-Abl in human K562 cells at 16 nM incubated for 24 hrs by Western blotting analysis; format: cell-based
Bcr/Abl fusion protein (Homo sapiens), sequence (P00519 whole entry, looked up, the tested form may be a part): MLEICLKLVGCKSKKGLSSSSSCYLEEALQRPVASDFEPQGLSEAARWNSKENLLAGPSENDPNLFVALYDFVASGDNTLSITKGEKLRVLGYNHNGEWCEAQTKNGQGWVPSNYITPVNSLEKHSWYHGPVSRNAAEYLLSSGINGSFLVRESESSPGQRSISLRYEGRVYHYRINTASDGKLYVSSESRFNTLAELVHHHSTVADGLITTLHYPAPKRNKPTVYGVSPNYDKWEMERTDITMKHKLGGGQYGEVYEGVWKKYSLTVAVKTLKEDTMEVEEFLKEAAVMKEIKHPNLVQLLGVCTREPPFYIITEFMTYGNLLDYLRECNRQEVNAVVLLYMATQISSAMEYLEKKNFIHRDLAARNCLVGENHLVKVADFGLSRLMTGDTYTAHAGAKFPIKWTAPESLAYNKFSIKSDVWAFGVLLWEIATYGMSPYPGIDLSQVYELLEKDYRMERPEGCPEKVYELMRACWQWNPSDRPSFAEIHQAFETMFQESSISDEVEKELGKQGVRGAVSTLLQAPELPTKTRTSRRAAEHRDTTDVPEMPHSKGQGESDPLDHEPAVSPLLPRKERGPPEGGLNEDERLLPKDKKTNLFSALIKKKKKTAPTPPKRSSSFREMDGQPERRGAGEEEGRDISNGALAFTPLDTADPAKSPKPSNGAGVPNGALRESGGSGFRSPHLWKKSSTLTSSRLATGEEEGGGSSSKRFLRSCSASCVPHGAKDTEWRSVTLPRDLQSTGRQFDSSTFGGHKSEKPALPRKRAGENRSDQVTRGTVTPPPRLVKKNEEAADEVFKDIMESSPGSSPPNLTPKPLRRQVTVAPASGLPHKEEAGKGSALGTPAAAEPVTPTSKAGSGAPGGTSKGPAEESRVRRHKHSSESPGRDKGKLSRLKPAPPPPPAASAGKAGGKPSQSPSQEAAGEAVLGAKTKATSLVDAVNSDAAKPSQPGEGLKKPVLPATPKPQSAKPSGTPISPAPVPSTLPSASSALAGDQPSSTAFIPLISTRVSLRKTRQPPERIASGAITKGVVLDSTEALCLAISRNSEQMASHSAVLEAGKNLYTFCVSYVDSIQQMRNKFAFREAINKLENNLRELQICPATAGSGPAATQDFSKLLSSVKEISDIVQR
Bcr/Abl fusion protein (Homo sapiens), sequence (P11274 whole entry, looked up, the tested form may be a part): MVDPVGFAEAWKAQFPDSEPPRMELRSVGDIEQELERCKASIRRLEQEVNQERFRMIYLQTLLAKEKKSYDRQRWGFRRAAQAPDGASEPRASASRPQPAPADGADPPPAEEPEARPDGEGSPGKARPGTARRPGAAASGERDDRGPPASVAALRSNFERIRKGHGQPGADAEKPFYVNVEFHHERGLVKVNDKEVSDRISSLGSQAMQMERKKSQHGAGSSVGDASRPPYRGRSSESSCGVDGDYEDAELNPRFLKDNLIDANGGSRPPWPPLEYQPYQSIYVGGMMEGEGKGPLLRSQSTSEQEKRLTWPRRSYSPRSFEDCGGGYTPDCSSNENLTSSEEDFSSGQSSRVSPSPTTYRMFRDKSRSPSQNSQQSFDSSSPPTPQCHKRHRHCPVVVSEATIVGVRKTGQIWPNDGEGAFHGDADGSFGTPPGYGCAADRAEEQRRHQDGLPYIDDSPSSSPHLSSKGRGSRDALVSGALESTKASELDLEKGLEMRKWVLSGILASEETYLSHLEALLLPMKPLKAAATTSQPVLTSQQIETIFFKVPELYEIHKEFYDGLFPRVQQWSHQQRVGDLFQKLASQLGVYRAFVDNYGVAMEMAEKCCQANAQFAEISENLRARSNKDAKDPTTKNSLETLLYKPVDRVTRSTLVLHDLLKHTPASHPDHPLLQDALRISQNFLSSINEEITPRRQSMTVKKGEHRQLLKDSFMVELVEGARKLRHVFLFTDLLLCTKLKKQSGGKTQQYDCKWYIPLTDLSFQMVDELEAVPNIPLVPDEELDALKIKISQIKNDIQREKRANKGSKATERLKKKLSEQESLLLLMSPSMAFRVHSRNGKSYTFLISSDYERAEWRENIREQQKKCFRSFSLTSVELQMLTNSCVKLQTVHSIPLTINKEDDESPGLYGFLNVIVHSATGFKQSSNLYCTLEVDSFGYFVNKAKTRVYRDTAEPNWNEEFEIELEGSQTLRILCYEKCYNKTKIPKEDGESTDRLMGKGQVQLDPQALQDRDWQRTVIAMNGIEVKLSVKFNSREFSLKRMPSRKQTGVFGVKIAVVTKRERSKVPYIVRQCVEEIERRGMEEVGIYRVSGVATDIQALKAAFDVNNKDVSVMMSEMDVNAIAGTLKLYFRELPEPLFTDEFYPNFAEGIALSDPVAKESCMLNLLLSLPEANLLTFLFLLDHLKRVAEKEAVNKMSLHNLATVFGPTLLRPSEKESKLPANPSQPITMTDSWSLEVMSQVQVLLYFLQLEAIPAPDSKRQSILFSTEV

Q: For `C=CCOc1cc(CNC(=O)c2cc(F)ccc2N2CCOCC2)ccc1OC`, which selectivity ratio at 72 h [1] is on record?
A: 25.6

Q: What about the IC50 at 72 h [2] of the same compound?
A: 5470 nM

Q: And the pIC50 (HepG2 [3])?
A: 6.27

Q: And the “Ratio IC50” value (H22 [4])?
A: 13.9

Q: What about the pIC50 (H22 [5]) of the same compound?
A: 6.55

Q: What about the t1/2 [6] of the same compound?
A: > 24 h

Q: What about the “Ratio IC50” value (K562 [7]) of the same compound?
A: 248.8

Q: And the “Ratio IC50” value (HepG2 [8])?
A: 28.2

Q: And the pIC50 (K562 [9])?
A: 5.40

Q: With `C#CC(C)(C)Oc1ccc(CNc2nc(N(C)c3ccc(OC)cc3)c3ccccc3n2)cc1` as the compound, how does the selectivity ratio at 72 h [10] read?
A: 11.4

Q: And the t1/2 [11]?
A: 5.8 h

Q: What about the IC50 at 72 h [2] of the same compound?
A: 516 nM

Q: And the pIC50 (HepG2 [3])?
A: 6.31

Q: And the pIC50 (H22 [5])?
A: 6.33

Q: And the “Ratio IC50” value (K562 [12])?
A: 26

Q: What about the “Ratio IC50” value (H22 [13]) of the same compound?
A: 24.5

Q: And the “Ratio IC50” value (HepG2 [14])?
A: 34.1

Q: What about the pIC50 (K562 [9]) of the same compound?
A: 6.29

Q: With `C#CC(C)(C)Oc1cc(CNC(=O)c2cc(F)ccc2N2CCOCC2)ccc1OC` as the compound, how does the selectivity ratio at 72 h [1] read?
A: 62.2

Q: What about the IC50 at 72 h [2] of the same compound?
A: 1330 nM

Q: What about the pIC50 (HepG2 [3]) of the same compound?
A: 5.96

Q: What about the “Ratio IC50” value (H22 [4]) of the same compound?
A: 21.9

Q: And the pIC50 (H22 [5])?
A: 6.35

Q: And the t1/2 [6]?
A: 14.5 h

Q: What about the “Ratio IC50” value (K562 [7]) of the same compound?
A: 28.7

Q: And the “Ratio IC50” value (HepG2 [8])?
A: 57.8

Q: What about the pIC50 (K562 [9]) of the same compound?
A: 6.34

Q: Which IC50 at 72 h [2] does the source give for `COc1ccc(N(C)c2nc(NCc3ccc(O)cc3)nc3ccccc23)cc1` here?
A: 45.4 nM

Q: What about the pIC50 (HepG2 [3]) of the same compound?
A: 7.84

Q: What about the pIC50 (H22 [5]) of the same compound?
A: 7.71

Q: What about the pIC50 (K562 [9]) of the same compound?
A: 7.71

Q: Which selectivity ratio at 72 h [10] does the source give for `C#CCOc1ccc(CNc2nc(N(C)c3ccc(OC)cc3)c3ccccc3n2)cc1` here?
A: 15.5

Q: What about the t1/2 [11] of the same compound?
A: 4.2 h

Q: What about the IC50 at 72 h [2] of the same compound?
A: 703 nM

Q: What about the pIC50 (HepG2 [3]) of the same compound?
A: 6.04

Q: What about the pIC50 (H22 [5]) of the same compound?
A: 6.64

Q: And the “Ratio IC50” value (K562 [12])?
A: 24.1

Q: What about the “Ratio IC50” value (H22 [13]) of the same compound?
A: 11.8

Q: What about the “Ratio IC50” value (HepG2 [14]) of the same compound?
A: 63.5

Q: What about the pIC50 (K562 [9]) of the same compound?
A: 6.33

Q: What does the source list for `COc1ccc(CNC(=O)c2cc(F)ccc2N2CCOCC2)cc1O`?
A: inhibition (Tubulin (Homo sapiens) [15]): Active; IC50 at 72 h [2]: 21.4 nM; inhibition (Tubulin (Homo sapiens) [16]): Active; inhibition in vivo at 20 mg/kg (HepG2 [17]): 49.6%; Activity (K562 [18]): 32.73%; Activity (Tubulin (Homo sapiens) [19]): Active; Activity (K562 [20]): 59.77%; inhibition (Tubulin (Homo sapiens) [21]): Active; pIC50 (HepG2 [3]): 7.72; Activity (K562 [22]): 45.95%; pIC50 (H22 [5]): 7.69; Activity (HepG2 [23]): Active; inhibition (Tubulin (Homo sapiens) [24]): Active; Activity (Tubulin (Homo sapiens) [25]): Active; Activity (K562 [26]): 4.31%; Activity (HepG2 [27]): Active; Activity (K562 [28]): Active; viability at 0.02 µM (K562 [29]): 15.2%; Activity (Tubulin (Homo sapiens) [30]): Active; Activity (K562 [31]): 20.68%; inhibition (Tubulin (Homo sapiens) [32]): Active; Activity (K562 [33]): 21.32%; Activity (HepG2 [34]): Active; inhibition (Tubulin (Homo sapiens) [35]): Active; inhibition [36]: Active; pIC50 (K562 [9]): 7.80

Q: Which results are given for `C=CCOc1ccc(CNc2nc(N(C)c3ccc(OC)cc3)c3ccccc3n2)cc1`?
A: selectivity ratio at 72 h [10]: 7.8; t1/2 [11]: > 24 h; IC50 at 72 h [2]: 353 nM; pIC50 (HepG2 [3]): 6.40; pIC50 (H22 [5]): 6.54; Ratio IC50 (K562 [12]): 25.7; Ratio IC50 (H22 [13]): 14.8; Ratio IC50 (HepG2 [14]): 27.9; pIC50 (K562 [9]): 6.30
